What all share (assay type): biochemical
The target of experiment [1] is T1, Full length human recombinant PIKFYVE (Homo sapiens, UniProt Q9Y2I7).
T1 construct: Full length human recombinant PIKFYVE; purchased Carna Biosciences (Kobe, Japan); host or cells: baculovirus expression system
Put plainly: Inhibition of PIKfyve (microfluidic electrophoresis kinase assay, PI3P/PS substrate). To be noted: 12 concentrations. The procedure, abridged: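 Percent inhibition, from 12 concentrations, was derived from the product/(substrate+product) peak ratio separated by microfluidic electrophoresis, normalized to DMSO-only and enzyme-free controls. Reactions ran 3 h at room temperature: 2 nM N-terminal GST-PIKFYVE, 1 μM fluorescent PI3P in PS vesicles, […], HEPES pH 7.5, MgCl2/MnCl2.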

In the next experiment the target is T2, PI3Kα (Homo sapiens, UniProt P42336).
T2 construct: Full-length N-terminal; FLAG (N); host or cells: SF9 cells (baculovirus)
Nature of the experiment: Inhibition of PI3K isoforms: PI3Kα (microfluidic electrophoresis kinase assay, PIP2/PS substrate). To be noted: p110α/p85α, ATP 90 μM; read-out: PI3Ka IC50. As for the experimental part:
The kinase substrate was prepared by mixing and sonicating fluorescently-labeled phosphatidylinositol 4,5-phosphate (PIP2) with phospho-L-serine (PS) at 1:20 ratio in 50 mM HEPES buffer pH7.5.
The kinase reactions were assembled in 384-well plates (Greiner) in a total volume of […] as follows. The kinase proteins were pre-diluted in an assay buffer comprising 50 mM HEPES, pH 7.5, 0.012% CHAPS, 1 mM DTT, 10 mM Na3VaO4, 10 mM 3-GP, 3 mM MgCl2, and 40 mM NaCl2, and dispensed into a 384-well plate (10 μL per well). Test compounds were serially pre-diluted in DMSO and added to the protein samples by acoustic dispensing (Labcyte Echo). The concentration of DMSO was equalized to 1% in all samples. All test compounds were tested at 12 concentrations. The control samples (0%-inhibition in the absence of inhibitor, DMSO only) and 100%-inhibition (in the absence of enzyme) were assembled in replicates of four and were used to calculate %-inhibition in the presence of test compounds. The reactions were initiated by addition of 10 μL of the PIP2/PS substrate supplemented with ATP. The final concentration of enzymes was 0.5 nM (PI3Kα), 1 nM (PI3Kβ), 10 nM (PI3Kγ), and 0.25 nM (PI3Kδ). The final concentration of ATP was 90 μM (PI3Kα), 60 μM (PI3Kβ), 100 μM (PI3Kγ), and 90 μM (PI3Kδ). The final concentration of PIP2/PS substrate was 1 μM (PIP2). The kinase reactions were allowed to proceed for 3 h at room temperature. Following incubation, the reactions were quenched by addition of 50 μL of termination buffer (100 mM HEPES, pH 7.5, 0.01% Triton X-100, 20 mM EDTA). Terminated plates were analyzed on a microfluidic electrophoresis instrument (Caliper LabChip® 3000, Caliper Life Sciences/Perkin Elmer). The change in the relative fluorescence intensity of the PI(4,5)P substrate and PI(3,4,5)P product peaks was measured. The activity in each test sample was determined as the product to sum ratio (PSR): P/(S+P), where P is the peak height of the product, and S is the peak height of the substrate. Percent inhibition (Pinh) was determined using the following equation:
Pinh=(PSR0% inh−PSRcompound)/(PSR0% inh−PSR100% inh)*100
in which PSRcompound is the product/sum ratio in the presence of compound, PSR0% inh is the product/sum ratio in the absence of compound, and the PSR100% inh is the product/sum ratio in the absence of the enzyme.

The next experiment addresses T3, PI3Kδ (Homo sapiens, UniProt O00329).
T3 construct: Full-length N-terminal; GST (N); host or cells: SF9 cells (baculovirus)
Nature of the experiment: Inhibition of PI3K isoforms: PI3Kδ (microfluidic electrophoresis kinase assay, PIP2/PS substrate). The settings on record: p110δ/p85α, ATP 90 μM; read-out: PI3Kd IC50. On the procedure: The kinase substrate was prepared by mixing and sonicating fluorescently-labeled phosphatidylinositol 4,5-phosphate (PIP2) with phospho-L-[…]:20 ratio in 50 mM HEPES buffer pH7.5. The kinase reactions were assembled in 384-well plates (Greiner) in a total volume of […] as follows. The kinase proteins were pre-diluted in an assay buffer comprising 50 mM HEPES, pH 7.5, 0.012% CHAPS, 1 mM DTT, 10 mM Na3VaO4, 10 mM 3-GP, 3 mM MgCl2, and 40 mM NaCl2, and dispensed into a 384-well plate (10 μL per well). Test compounds were serially pre-diluted in DMSO and added to the protein samples by acoustic dispensing (Labcyte Echo). The concentration of DMSO was equalized to 1% in all samples. All test compounds were tested at 12 concentrations. The control samples (0%-inhibition in the absence of inhibitor, DMSO only) and 100%-inhibition (in the absence of enzyme) were assembled in replicates of four and were used to calculate %-inhibition in the presence of test compounds. The reactions were initiated by addition of 10 μL of the PIP2/PS substrate supplemented with ATP. The final concentration of enzymes was 0.5 nM (PI3Kα), 1 nM (PI3Kβ), 10 nM (PI3Kγ), and 0.25 nM (PI3Kδ). The final concentration of ATP was 90 μM (PI3Kα), 60 μM (PI3Kβ), 100 μM (PI3Kγ), and 90 μM (PI3Kδ). The final concentration of PIP2/PS substrate was 1 μM (PIP2). The kinase reactions were allowed to proceed for 3 h at room temperature. Following incubation, the reactions were quenched by addition of 50 μL of termination buffer (100 mM HEPES, pH 7.5, 0.01% Triton X-100, 20 mM EDTA). Terminated plates were analyzed on a microfluidic electrophoresis instrument (Caliper LabChip® 3000, Caliper Life Sciences/Perkin Elmer). The change in the relative fluorescence intensity of the PI(4,5)P substrate and PI(3,4,5)P product peaks was measured. The activity in each test sample was determined as the product to sum ratio (PSR): P/(S+P), where P is the peak height of the product, and S is the peak height of the substrate. Percent inhibition (Pinh) was determined using the following equation: Pinh=(PSR0% inh-PSRcompound)/(PSR0% inh-PSR100% inh)*100 in which PSRcompound is the product/sum ratio in the presence of compound, PSR0% inh is the product/sum ratio in the absence of compound, and the PSR100% inh is the product/sum ratio in the absence of the enzyme. […] (Pinh versus compound concentration) were fitted by a four-parameter sigmoid dose-response model using XLfit software (IDBS).

Molecules are shown by their SMILES.

T1 sequence (Q9Y2I7 whole entry): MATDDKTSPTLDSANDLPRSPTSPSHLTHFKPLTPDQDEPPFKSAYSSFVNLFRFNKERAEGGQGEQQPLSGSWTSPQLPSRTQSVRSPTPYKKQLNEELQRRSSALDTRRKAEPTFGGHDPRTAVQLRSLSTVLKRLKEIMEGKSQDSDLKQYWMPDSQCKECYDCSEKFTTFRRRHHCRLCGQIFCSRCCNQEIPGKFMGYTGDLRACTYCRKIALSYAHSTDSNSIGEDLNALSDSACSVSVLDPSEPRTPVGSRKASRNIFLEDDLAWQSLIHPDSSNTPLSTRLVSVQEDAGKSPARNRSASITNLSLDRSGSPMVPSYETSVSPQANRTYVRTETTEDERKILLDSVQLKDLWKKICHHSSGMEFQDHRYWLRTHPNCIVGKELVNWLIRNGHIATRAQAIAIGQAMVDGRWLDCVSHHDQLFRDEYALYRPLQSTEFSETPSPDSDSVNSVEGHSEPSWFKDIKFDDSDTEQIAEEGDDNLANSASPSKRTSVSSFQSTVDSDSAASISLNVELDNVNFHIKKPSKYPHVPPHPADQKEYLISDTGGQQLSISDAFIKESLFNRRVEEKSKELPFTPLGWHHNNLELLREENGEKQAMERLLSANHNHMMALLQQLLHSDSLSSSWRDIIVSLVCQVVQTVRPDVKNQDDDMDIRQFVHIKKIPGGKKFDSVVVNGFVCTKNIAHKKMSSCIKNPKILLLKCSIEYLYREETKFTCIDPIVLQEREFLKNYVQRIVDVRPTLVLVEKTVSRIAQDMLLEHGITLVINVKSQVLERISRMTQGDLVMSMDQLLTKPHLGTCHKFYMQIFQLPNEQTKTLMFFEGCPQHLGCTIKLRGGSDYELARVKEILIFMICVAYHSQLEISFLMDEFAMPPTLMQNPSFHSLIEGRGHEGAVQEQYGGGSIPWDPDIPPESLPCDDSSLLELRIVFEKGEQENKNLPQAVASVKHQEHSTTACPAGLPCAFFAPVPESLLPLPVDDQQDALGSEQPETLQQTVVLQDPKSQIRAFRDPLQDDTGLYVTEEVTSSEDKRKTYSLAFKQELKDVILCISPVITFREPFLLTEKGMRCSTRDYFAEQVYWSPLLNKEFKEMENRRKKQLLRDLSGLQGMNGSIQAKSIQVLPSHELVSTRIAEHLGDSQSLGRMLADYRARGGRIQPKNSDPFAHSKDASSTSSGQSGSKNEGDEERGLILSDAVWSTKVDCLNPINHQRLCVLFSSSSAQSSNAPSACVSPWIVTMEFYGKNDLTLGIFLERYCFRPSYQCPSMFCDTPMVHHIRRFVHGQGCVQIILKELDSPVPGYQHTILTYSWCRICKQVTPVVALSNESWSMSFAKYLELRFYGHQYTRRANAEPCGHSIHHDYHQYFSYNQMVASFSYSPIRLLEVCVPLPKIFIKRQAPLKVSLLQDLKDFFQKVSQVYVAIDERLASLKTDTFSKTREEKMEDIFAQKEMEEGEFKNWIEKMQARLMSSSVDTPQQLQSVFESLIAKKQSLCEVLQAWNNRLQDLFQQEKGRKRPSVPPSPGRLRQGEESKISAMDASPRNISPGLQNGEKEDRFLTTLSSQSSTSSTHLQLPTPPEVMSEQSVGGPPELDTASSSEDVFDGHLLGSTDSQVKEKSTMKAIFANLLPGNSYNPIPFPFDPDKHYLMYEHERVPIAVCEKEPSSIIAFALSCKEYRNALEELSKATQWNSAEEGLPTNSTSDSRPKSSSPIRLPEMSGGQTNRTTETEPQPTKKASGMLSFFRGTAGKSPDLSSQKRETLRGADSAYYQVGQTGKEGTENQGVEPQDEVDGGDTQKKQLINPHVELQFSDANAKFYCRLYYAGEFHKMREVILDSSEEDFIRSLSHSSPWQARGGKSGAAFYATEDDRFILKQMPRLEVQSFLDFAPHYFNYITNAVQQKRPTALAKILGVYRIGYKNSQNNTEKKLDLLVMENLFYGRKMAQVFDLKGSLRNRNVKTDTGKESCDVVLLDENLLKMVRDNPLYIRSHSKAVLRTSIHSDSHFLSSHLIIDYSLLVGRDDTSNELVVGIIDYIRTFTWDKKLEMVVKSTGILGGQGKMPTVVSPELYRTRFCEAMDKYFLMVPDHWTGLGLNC
T3 sequence (O00329 whole entry): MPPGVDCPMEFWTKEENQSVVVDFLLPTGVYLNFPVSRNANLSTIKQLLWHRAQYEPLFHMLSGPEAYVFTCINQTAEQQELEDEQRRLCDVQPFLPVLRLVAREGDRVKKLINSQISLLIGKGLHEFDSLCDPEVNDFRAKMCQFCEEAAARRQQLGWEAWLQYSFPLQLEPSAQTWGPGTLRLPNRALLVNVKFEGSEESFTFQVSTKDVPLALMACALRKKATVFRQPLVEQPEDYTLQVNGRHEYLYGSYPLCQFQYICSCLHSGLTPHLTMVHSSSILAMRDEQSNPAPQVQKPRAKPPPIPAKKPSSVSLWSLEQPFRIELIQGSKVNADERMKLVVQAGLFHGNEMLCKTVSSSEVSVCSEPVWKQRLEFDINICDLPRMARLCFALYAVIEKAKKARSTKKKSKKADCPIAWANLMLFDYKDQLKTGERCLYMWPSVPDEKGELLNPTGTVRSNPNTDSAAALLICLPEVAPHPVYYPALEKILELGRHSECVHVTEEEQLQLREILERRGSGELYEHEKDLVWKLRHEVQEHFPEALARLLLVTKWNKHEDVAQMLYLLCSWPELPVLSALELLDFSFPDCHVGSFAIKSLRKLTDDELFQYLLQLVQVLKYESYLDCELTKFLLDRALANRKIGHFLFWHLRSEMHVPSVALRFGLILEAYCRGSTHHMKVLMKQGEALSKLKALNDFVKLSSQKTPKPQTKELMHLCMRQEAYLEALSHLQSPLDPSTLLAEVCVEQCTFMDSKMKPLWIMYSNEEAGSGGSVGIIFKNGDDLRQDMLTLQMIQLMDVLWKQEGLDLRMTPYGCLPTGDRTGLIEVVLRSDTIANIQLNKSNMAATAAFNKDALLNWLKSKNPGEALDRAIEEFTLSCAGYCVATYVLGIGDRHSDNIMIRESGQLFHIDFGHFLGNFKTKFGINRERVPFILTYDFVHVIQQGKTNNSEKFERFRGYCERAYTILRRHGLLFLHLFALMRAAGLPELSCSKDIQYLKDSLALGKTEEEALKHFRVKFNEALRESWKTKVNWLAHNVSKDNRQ
T3 sequence (P27986 whole entry partner): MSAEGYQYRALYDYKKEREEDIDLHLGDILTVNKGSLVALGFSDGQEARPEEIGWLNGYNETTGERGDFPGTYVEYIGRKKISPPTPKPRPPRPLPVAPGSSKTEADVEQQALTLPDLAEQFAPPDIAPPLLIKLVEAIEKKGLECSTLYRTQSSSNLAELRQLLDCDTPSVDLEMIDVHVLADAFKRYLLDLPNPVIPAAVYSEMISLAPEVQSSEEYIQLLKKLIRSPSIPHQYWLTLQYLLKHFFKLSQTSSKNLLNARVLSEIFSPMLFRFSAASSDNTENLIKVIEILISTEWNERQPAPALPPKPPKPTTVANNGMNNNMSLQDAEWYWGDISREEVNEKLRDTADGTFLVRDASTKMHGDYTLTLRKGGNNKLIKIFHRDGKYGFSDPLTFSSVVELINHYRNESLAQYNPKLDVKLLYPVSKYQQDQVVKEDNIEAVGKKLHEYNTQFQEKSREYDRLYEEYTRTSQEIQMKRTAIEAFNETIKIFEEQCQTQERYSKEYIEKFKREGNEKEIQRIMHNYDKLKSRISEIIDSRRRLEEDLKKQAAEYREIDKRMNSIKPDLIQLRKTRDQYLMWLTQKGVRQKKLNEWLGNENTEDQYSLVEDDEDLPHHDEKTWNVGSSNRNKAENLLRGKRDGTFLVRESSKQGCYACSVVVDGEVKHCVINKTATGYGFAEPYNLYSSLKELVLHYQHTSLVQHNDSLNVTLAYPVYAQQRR
T2 sequence (P42336 whole entry): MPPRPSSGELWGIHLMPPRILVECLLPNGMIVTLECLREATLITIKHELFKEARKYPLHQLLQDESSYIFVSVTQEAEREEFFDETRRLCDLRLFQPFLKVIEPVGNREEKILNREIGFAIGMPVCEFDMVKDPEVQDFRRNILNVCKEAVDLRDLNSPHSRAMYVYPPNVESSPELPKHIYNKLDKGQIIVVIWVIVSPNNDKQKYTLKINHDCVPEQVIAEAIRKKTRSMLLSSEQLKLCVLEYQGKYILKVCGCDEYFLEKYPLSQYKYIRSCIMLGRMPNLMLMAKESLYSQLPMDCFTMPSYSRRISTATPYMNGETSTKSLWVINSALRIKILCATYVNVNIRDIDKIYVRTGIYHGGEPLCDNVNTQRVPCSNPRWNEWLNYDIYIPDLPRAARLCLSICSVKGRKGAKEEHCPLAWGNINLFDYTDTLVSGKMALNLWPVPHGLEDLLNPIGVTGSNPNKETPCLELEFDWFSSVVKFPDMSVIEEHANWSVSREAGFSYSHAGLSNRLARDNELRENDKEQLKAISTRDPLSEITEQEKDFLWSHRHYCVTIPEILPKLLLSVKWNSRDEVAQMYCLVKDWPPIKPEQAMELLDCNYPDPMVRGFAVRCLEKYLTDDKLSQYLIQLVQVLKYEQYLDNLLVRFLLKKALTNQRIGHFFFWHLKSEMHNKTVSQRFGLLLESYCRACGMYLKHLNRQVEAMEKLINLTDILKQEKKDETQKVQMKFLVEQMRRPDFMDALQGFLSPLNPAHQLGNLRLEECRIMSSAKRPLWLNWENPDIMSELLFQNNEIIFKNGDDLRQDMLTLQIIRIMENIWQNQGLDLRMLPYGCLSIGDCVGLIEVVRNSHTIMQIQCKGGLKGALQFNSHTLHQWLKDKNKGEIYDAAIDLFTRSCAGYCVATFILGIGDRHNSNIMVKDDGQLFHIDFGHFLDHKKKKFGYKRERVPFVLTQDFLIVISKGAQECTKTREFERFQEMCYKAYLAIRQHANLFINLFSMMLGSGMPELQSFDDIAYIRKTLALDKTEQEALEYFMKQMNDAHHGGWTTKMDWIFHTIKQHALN
T2 sequence (P27986 whole entry partner): as the sequence (P27986 whole entry partner) above

`CCc1cc(Nc2nc(N3CCOCC3)c3oc(C(=O)NC)cc3n2)[nH]n1` [Compound 87, 2-((5-ethyl-1H-pyrazol-3-yl)amino)-N-methyl-4-morpholinofuro[3,2-d]pyrimidine-6-carboxamide, hydrogen chloride]: the IC50 (usually the midpoint of a concentration-inhibition curve) was at least 20 µM in experiment [1] and 3.48 µM at PI3Kα.
In the same order, the values of `CNC(=O)c1cc2nc(Nc3cc(C4CCCC4)n[nH]3)nc(N3CCOCC3)c2o1` [Compound 83, 2-((5-cyclopentyl-1H-pyrazol-3-yl)amino)-N-methyl-4-morpholinofuro[3,2-d]pyrimidine-6-carboxamide, hydrogen chloride] are 4.09 µM and 3.72 µM.
`CNC(=O)c1cc2nc(Nc3cc(CC4CCCC4)n[nH]3)nc(N3CCOCC3)c2o1` [Compound 84, 2-((5-(cyclopentylmethyl)-1H-pyrazol-3-yl)amino)-N-methyl-4-morpholinofuro[3,2-d]pyrimidine-6-carboxamide, hydrogen chloride]: the figures for the concentration for half-maximal inhibition (IC50) (in experiment [1]; on PI3Kα; at PI3Kδ) were at least 20 µM, 4.53 µM and 218 nM, respectively.
Consider `c1cc(-c2cc3nc(Nc4cc(C5CCC5)n[nH]4)nc(N4CCOCC4)c3o2)ccn1` [Compound 70, N-(5-cyclobutyl-1H-pyrazol-3-yl)-4-morpholino-6-(pyridin-4-yl)furo[3,2-d]pyrimidin-2-amine, hydrogen chloride], for which the concentration for half-maximal inhibition (IC50) in experiment [1] was 0.142 µM; on PI3Kα it was 4.14 µM; on PI3Kδ, 164 nM.
Taken in the same sequence, the figures for `CNC(=O)c1cc2nc(Nc3cc(C4CCC4)n[nH]3)nc(N3CCOCC3)c2o1` [Compound 80, 2-((5-cyclobutyl-1H-pyrazol-3-yl)amino)-N-methyl-4-morpholinofuro[3,2-d]pyrimidine-6-carboxamide, hydrogen chloride] were 5.5 µM, 5.52 µM and 454 nM.

The record behind these values is patent US20230146395A1, “Substituted Pyrimidines and Uses Thereof” (Verge Analytics, Inc., priority 2020, published 2023).
